Experimental data taken from patent publication US10493070B2 (priority 2016, dated 2019).
Like-named read-outs stand apart in the source and are kept apart here.

Test system: recombinant NL4-3 virus (NLRluc, Renilla luciferase in nef, Gag P373S)
Assay: HIV cell culture assay (Renilla luciferase reporter virus in MT-2 cells)
Format: cell-based
Conditions: Renilla
In short: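 MT-2 cells infected with NL4-3 reporter virus (Renilla luciferase replacing part of nef, Gag P373S), made by 293T transfection and titered in MT-2 cells by luciferase. Infection runs 4–5 days with serial inhibitor dilutions. Antiviral activity read as Renilla luciferase activity (Dual Luciferase reagents).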

[1] = NL43, read-out: 10% FBS EC50, 10% FBS, numeric values
[2] = NL43, read-out: 10% FBS EC50, 10% FBS, class symbols A/B/C

Structure (SMILES) | EC50 [1] [nM] | EC50 [2] [nM]
CC1(C)C(c2ccc(C(=O)O)cc2)=CC[C@]2(C)CN(C(=O)c3ccccc3-c3nc4ccccc4n3-c3ccccc3)CC=C12 [Example A279] | 390 | 
CC(C)S(=O)(=O)N1CCC(C(=O)N2CC=C3C(C)(C)C(c4ccc(C(=O)O)cc4)=CC[C@]3(C)C2)(c2ccccc2)CC1 [Example A195] |  | < 500
CC1(C)C(c2ccc(C(=O)O)cc2)=CC[C@]2(C)CN(C(=O)c3ccc(F)cc3)CC=C12 [Example 3] |  | > 3000
CC1(C)C(c2ccc(C(=O)O)cc2)=CC[C@]2(C)CN(C(=O)c3ccc(C(=O)O)cc3)CC=C12 [Example 13] |  | > 3000
CC1(C)C(c2ccc(C(=O)O)cc2)=CC[C@]2(C)CN(C(=O)C3(c4ccc(F)cc4)CCCC3)CC=C12 [Example A111] |  | > 3000
CC(C)C[C@@H](NC(=O)OC(C)(C)C)C(=O)N1CCC(C(=O)N2CC=C3C(C)(C)C(c4ccc(C(=O)O)cc4)=CC[C@]3(C)C2)(c2ccccc2)CC1 [Example 92, 4-((S)-2-(1-((tert-butoxycarbonyl)-D-leucyl)-4-phenylpiperidine-4-carbonyl)-5,5,8a-trimethyl-1,2,3,5,8,8a-hexahydroisoquinolin-6-yl)benzoic acid] | 8 | 
CC(C)(C)OC(=O)N1CCC(C)(C(=O)N2CC=C3C(C)(C)C(c4ccc(C(=O)O)cc4)=CC[C@]3(C)C2)CC1 [Example 48] | 270 | 
CC1(C)C(c2ccc(C(=O)O)cc2)=CC[C@]2(C)CN(C(=O)c3ccc(C(=O)N4CC=C5C(C)(C)C(c6ccc(C(=O)O)cc6)=CC[C@]5(C)C4)cc3)CC=C12 [Example 59] | 1050 | 
CN1CCN(c2cccc(C(=O)N3CC=C4C(C)(C)C(c5ccc(C(=O)O)cc5)=CC[C@]4(C)C3)c2)CC1 [Example 29] |  | > 3000
CC1(C)C(c2ccc(C(=O)O)cc2)=CC[C@]2(C)CN(C(=O)c3c(-c4ccccc4)nc4ccccn34)CC=C12 [Example A91] | 711 | 
CC1(C)C(c2ccc(C(=O)O)cc2)=CC[C@]2(C)CN(C(=O)c3cscc3C(=O)N3CC=C4C(C)(C)C(c5ccc(C(=O)O)cc5)=CC[C@]4(C)C3)CC=C12 [Example 64] | 1060 | 
Cc1nn(-c2ccccc2)nc1C(=O)N1CC=C2C(C)(C)C(c3ccc(C(=O)O)cc3)=CC[C@]2(C)C1 [Example A40] |  | > 3000
CC1(C)C(c2ccc(C(=O)O)cc2)=CC[C@]2(C)CN(C(=O)C3(c4ccccc4F)CCCC3)CC=C12 [Example A1] |  | > 3000
CC1(C)C(c2ccc(C(=O)O)cc2)=CC[C@]2(C)CN(c3ccccc3-c3nnn(CCN4CCS(=O)(=O)CC4)n3)CC=C12 [Example B6] | 45 | 
CC(C)(C)OC(=O)N1CCC(Cc2ccccc2)(C(=O)N2CC=C3C(C)(C)C(c4ccc(C(=O)O)cc4)=CC[C@]3(C)C2)CC1 [Example 47] | 1070 | 
CC1(C)C(c2ccc(C(=O)O)cc2)=CC[C@]2(C)CN(C(=O)c3ccc(C(=O)N4CCS(=O)(=O)CC4)cc3)CC=C12 [Example 69] |  | > 3000
CC(C)C[C@H](NC(=O)OC(C)(C)C)C(=O)N1CCC(C(=O)N2CC=C3C(C)(C)[C@@H](c4ccc(C(=O)O)cc4)CC[C@]3(C)C2)(c2ccccc2)CC1 [Example 89] | 67 | 
CC(C)C[C@H](NC(=O)OC(C)(C)C)C(=O)N1CCC(C(=O)N2CC=C3C(C)(C)C(c4ccc(C(=O)O)cc4)=CC[C@]3(C)C2)(c2ccccc2)CC1 [Example 93] |  | < 500
CC1(C)C(c2ccc(C(=O)O)cc2)=CC[C@]2(C)CN(C(=O)CCN3CCS(=O)(=O)CC3)CC=C12 [Example 36] |  | > 3000
COc1ccccc1C(=O)N1CC=C2C(C)(C)C(c3ccc(C(=O)O)cc3)=CC[C@]2(C)C1 [Example 17] | 1690 | 
CC1(C)C(c2ccc(C(=O)O)cc2)=CC[C@]2(C)CN(C(=O)c3cncc(C(=O)O)c3)CC=C12 [Example 45] |  | > 3000
CC1(C)C(c2ccc(C(=O)O)cc2)=CC[C@]2(C)CN(C(=O)c3ccccc3)CC=C12 [Example 1, (S)-4-(2-benzoyl-5,5,8a-trimethyl-1,2,3,5,8,8a-hexahydroisoquinolin-6-yl)benzoic acid] |  | > 3000
CC1(C)C(c2ccc(C(=O)O)cc2)=CC[C@]2(C)CN(C(=O)c3ccccc3N3CCOCC3)CC=C12 [Example 26] | 630 | 
CC(C)(C)OC(=O)N1CCC(C(=O)N2CCC3C(C)(C)[C@@H](c4ccc(C(=O)O)cc4)CC[C@]3(C)C2)(c2ccccc2)CC1 (some centres unmarked) [Example 84] | 50 | 
CN(C)c1ccc(C(=O)N2CC=C3C(C)(C)C(c4ccc(C(=O)O)cc4)=CC[C@]3(C)C2)cc1 [Example 25] |  | > 3000
CC1(C)C(c2ccc(C(=O)O)cc2)=CC[C@]2(C)CN(C(=O)c3cccc(F)c3F)CC=C12 [Example 4] |  | > 3000
CC1(C)C(c2ccc(C(=O)O)cc2)=CC[C@]2(C)CN(C(=O)c3ccc4cc[nH]c4c3)CC=C12 [Example 39] | 1490 | 

Structure (SMILES) | EC50 [1] [nM] | EC50 [2] [nM]
CC1(C)C(c2ccc(C(=O)O)cc2)=CC[C@]2(C)CN(C(=O)C3(c4ccccc4)CCN(C(=O)CCN4CCS(=O)(=O)CC4)CC3)CC=C12 [Example 95] | 2700 | 
CC1(C)C(c2ccc(C(=O)O)cc2)=CC[C@]2(C)CN(C(=O)c3cccc(C(N)=O)c3)CC=C12 [Example 21] |  | > 3000
CC1(C)C(c2ccc(C(=O)O)cc2)=CC[C@]2(C)CN(c3ncc(C(=O)O)s3)CC=C12 [Example B12] |  | > 3000
CC1(C)C(c2ccc(C(=O)O)cc2)=CC[C@]2(C)CN(C(=O)c3ccccc3-c3nc4cc(F)c(F)cc4[nH]3)CC=C12 [Example A267] |  | 500 to 3000
COc1ccc(C(=O)N2CC=C3C(C)(C)C(c4ccc(C(=O)O)cc4)=CC[C@]3(C)C2)cc1 [Example 19] |  | > 3000
CC1(C)C(c2ccc(C(=O)O)cc2)=CC[C@]2(C)CN(C(=O)c3cccc(C(=O)N4CCS(=O)(=O)CC4)c3)CC=C12 [Example 68] |  | > 3000
CC1(C)C(c2ccc(C(=O)O)cc2)=CC[C@]2(C)CN(C(=O)c3ccc(F)c(F)c3)CC=C12 [Example 7] |  | > 3000
CC1(C)C(c2ccc(C(=O)O)cc2)=CC[C@]2(C)CN(C(=O)c3cncc(C(=O)NCCCN4CCS(=O)(=O)CC4)c3)CC=C12 [Example 71] |  | > 3000
CC1(C)C(c2ccc(C(=O)O)cc2)=CC[C@]2(C)CN(c3cc(F)cc(-c4nnn(CCN5CCS(=O)(=O)CC5)n4)c3)CC=C12 [Example B8] |  | < 500
CC1(C)C(c2ccc(C(=O)O)cc2)=CC[C@]2(C)CN(C(=O)c3ccccc3-c3ccc(C#N)cc3)CC=C12 [Example A71] | 1300 | 
CC1(C)C(c2ccc(C(=O)O)cc2)=CC[C@]2(C)CN(C(=O)C3C4CCC(C4)C3C(=O)N3CC=C4C(C)(C)C(c5ccc(C(=O)O)cc5)=CC[C@]4(C)C3)CC=C12 (some centres unmarked) [Example 65] | 2810 | 
CC1(C)C(c2ccc(C(=O)O)cc2)=CC[C@@]2(C)CN(C(=O)c3cccc4c3C(=O)c3ccccc3-4)CC=C12 [Example A30] | 1080 | 
CC1(C)C(c2ccc(C(=O)O)cc2)=CC[C@]2(C)CN(C(=O)c3nc4ccccc4[nH]3)CC=C12 [Example A66] |  | > 3000
CC1(C)C(c2ccc(C(=O)O)cc2)=CC[C@]2(C)CN(C(=O)c3ccc4[nH]cnc4c3)CC=C12 [Example 40] |  | > 3000
CC1(C)C(c2ccc(C(=O)O)cc2)=CC[C@]2(C)CN(C(=O)[C@H]3CC[C@H](N)CC3)CC=C12 [Example 52] | 3620 | 
CC1(C)C(c2ccc(C(=O)O)cc2)=CC[C@]2(C)CN(C(=O)c3ccccc3-c3nc4cc(C(=O)O)ccc4n3Cc3ccccc3)CC=C12 [Example A290] |  | > 3000
CC1(C)C(c2ccc(C(=O)O)cc2)=CC[C@]2(C)CN(C(=O)c3ccccc3-c3nc4cc(Br)ccc4o3)CC=C12 [Example A315] | 127 | 
CC1(C)C(c2ccc(C(=O)O)cc2)=CC[C@]2(C)CN(C(=O)c3cccc(N4CCOCC4)c3)CC=C12 [Example 27] |  | > 3000
CC1(C)C(c2ccc(C(=O)O)cc2)=CC[C@]2(C)CN(C(=O)C3(c4ccccc4)CCN(C(=O)CN4CCS(=O)(=O)CC4)CC3)CC=C12 [Example 94] | 1370 | 
CCn1c(-c2ccccc2C(=O)N2CC=C3C(C)(C)C(c4ccc(C(=O)O)cc4)=CC[C@]3(C)C2)nc2cc(S(C)(=O)=O)ccc21 [Example A286] |  | > 3000
CN1CCC2C(C)(C)[C@H](c3ccc(C(=O)O)cc3)CC[C@]2(C)C1 (single isomer, unassigned) [Example 90] |  | > 3000
CC1(C)C(c2ccc(C(=O)O)cc2)=CC[C@]2(C)CN(c3ncnc(NCCCN4CCS(=O)(=O)CC4)n3)CC=C12 [Example 74, (S)-4-(2-(4-((3-(1,1-dioxidothiomorpholino)propyl)amino)-1,3,5-triazin-2-yl)-5,5,8a-trimethyl-1,2,3,5,8,8a-hexahydroisoquinolin-6-yl)benzoic acid] | 340 | 
CC1(C)C(c2ccc(C(=O)O)cc2)=CC[C@]2(C)CN(C(=O)c3ccc(N4CCOCC4)cc3)CC=C12 [Example 28] |  | > 3000
CC1(C)C(c2ccc(C(=O)O)cc2)=CC[C@]2(C)CN(C(=O)c3[nH]c4ccccc4c3-c3ccccc3)CC=C12 [Example A112] | 1100 | 
CC1(C)C(c2ccc(C(=O)O)cc2)=CC[C@]2(C)CN(C(=O)c3ccc(CN)cc3)CC=C12 [Example 53] |  | > 3000
CC1(C)C(c2ccc(C(=O)O)cc2)=CC[C@]2(C)CN(c3cc(NC(=O)CCN4CCS(=O)(=O)CC4)cc(-c4nnn(CCN5CCS(=O)(=O)CC5)n4)c3)CC=C12 [Example B4, (S)-4-(2-(3-(2-(2-(1,1-dioxidothiomorpholino)ethyl)-2H-tetrazol-5-yl)-5-(3-(1,1-dioxidothiomorpholino)propanamido)phenyl)-5,5,8a-trimethyl-1,2,3,5,8,8a-hexahydroisoquinolin-6-yl)benzoic acid] | 1700 | 
